Data taken from patent publication US20260224658A1, “PRODUCTS AND METHODS FOR THE DIAGNOSIS AND TREATMENT OF P[…]” (priority 2023, published 2026).
Values after ≈ are worked out from the molar mass of the structure shown.

Tests used:
Assay type in all cases: cell-based, Pseudomonas aeruginosa
[1] = system: MPAO1; assay: microbe, parasite or virus in culture; conditions: Pseudomonas aeruginosa; strain MPAO1; read-out: MIC, average of triplicates
Description: (§1) MIC experiments were performed using biological triplicates.

[2] = system: PAO1; assay: microbe, parasite or virus in culture; conditions: Pseudomonas aeruginosa; strain PAO1; read-out: MIC, average of triplicates
Description: as §1

[3] = system: MPAO1-ΔmutS; assay: MIC, microbroth dilution assay; conditions: Pseudomonas aeruginosa, read-out: MIC, average of triplicates
Description: as §1

[4] = system: MPAO1-ΔmutL; assay: MIC, microbroth dilution assay; conditions: Pseudomonas aeruginosa, read-out: MIC, average of triplicates
Description: as §1

[5] = system: MPAO1-ΔmutS; assay: In vitro adaptive evolution (serial passaging) with MIC determination; conditions: Pseudomonas aeruginosa
Description: (§2) MICs were determined via microbroth dilution assay in 96-well culture plates with 2-fold serial dilutions of tested antibiotic in Mueller-Hinton (cation-adjusted) broth, inoculated with 50 μL of 2.75×10^5 CFU/mL of each bacterial strain and incubated at 37° C., 200 rpm for 24 hours. MIC experiments were performed using biological triplicates.
(§3) Serial passaging of bacterial strains was performed in 96-well culture plates with 2-fold serial dilutions of antibiotic in MH broth, inoculated with 50 μL 2.75×10^5 CFU/mL of each strain and incubated at 37° C., 200 rpm for 24 hours. […] The bacteria were then serially passaged in the same antibiotic and MIC determined for all antibiotics (aztreonam, ciprofloxacin, D-CONGA, D-CONGA-Q7, polymyxin B). See Antimicrobial susceptibility testing section. The bacteria were serially passaged a total of 10 times.
(§4) All resistance acquisition data was analyzed in units of fold-change to normalize for differences in starting MIC across strains. Fold-change in MIC data for all strains and treatment groups was natural log-transformed and simple linear regression was performed considering each replicate fold-change value as an individual point. Slope, standard error of slope, and total number of values of each treatment group of interest were analyzed via unpaired t-test (ΔmutS vs WT) or ordinary one-way ANOVA (cross-resistance acquisition of ΔmutS+AB vs −AB vs WT), and α-values were corrected for multiple comparisons using the Bonferroni method. Differences in estimated mutation rate across treatment groups were determined via ordinary one-way ANOVA (Brown-Forsythe test). For all statistical tests, p<0.05 was considered significant. All figures were created and statistical tests were done using GraphPad Prism 9.3.1.

[6] = system: MPAO1-ΔmutL; assay: as above; conditions: Pseudomonas aeruginosa
Description: as §2, §3, §4

[7] = system: MPAO1; assay: as above; conditions: Pseudomonas aeruginosa
Description: as §2, §3, §4

Molecule `[H]/N=C(/N)N[C@H]1[C@H](O)[C@@H](O)[C@H](O[C@@H]2O[C@@H](C)[C@](O)(C=O)[C@H]2O[C@@H]2O[C@@H](CO)[C@H](O)[C@@H](O)[C@@H]2NC)[C@@H](N/C(N)=N\[H])[C@@H]1O` [Streptomycin] has an MIC [1] of 8 µg/mL (≈ 13.8 µM), an MIC [2] of 21 µg/mL (≈ 36.1 µM) and an MIC [3] of 32 µg/mL (≈ 55 µM). The MIC [4] was 43 µg/mL (≈ 73.9 µM).
`C[C@H]1[C@H](NC(=O)/C(=N\OC(C)(C)C(=O)O)c2csc(N)n2)C(=O)N1S(=O)(=O)O` [Aztreonam] was tested, and the MIC [1] was 2 µg/mL (≈ 4.59 µM), the MIC [2] was 3 µg/mL (≈ 6.89 µM) and the MIC [3] was 13 µg/mL (≈ 29.9 µM). For the same molecule, the MIC [4] was 30 µg/mL (≈ 68.9 µM), the MIC ([5]; read-out: Average MIC at end point, MPAO1-ΔmutS evolved in AZ) was 107 µg/mL (≈ 246 µM) and the MIC ([5]; read-out: Average MIC at end point, MPAO1-ΔmutS evolved in AZ + COL) was 16 µg/mL. It also gave an MIC ([5]; read-out: Average MIC at end point, MPAO1-ΔmutS evolved in AZ + D-CONGA) of 18 µg/mL, an MIC ([5]; read-out: Average MIC at end point, MPAO1-ΔmutS evolved in AZ + D-CONGA-Q7) of 16 µg/mL and an MIC ([5]; read-out: Average MIC at end point, MPAO1-ΔmutS evolved in Chl) of 32 µg/mL (≈ 73.5 µM). It also gave an MIC ([5]; read-out: Average MIC at end point, MPAO1-ΔmutS evolved in D-CONGA) of 16 µg/mL (≈ 36.7 µM), an MIC ([5]; read-out: Average MIC at end point, MPAO1-ΔmutS evolved in D-CONGA-Q7) of 4 µg/mL (≈ 9.19 µM) and an MIC ([5]; read-out: Average MIC at end point, MPAO1-ΔmutS passaged with No Antibiotic (Table 4)) of 8 µg/mL (≈ 18.4 µM). For the same molecule, the MIC ([5]; read-out: Average MIC at end point, MPAO1-ΔmutS passaged with No Antibiotic (Table 8)) was 5 µg/mL (≈ 11.5 µM), the MIC ([6]; read-out: Average MIC at end point, MPAO1-ΔmutL evolved in Chl + Str) was 32 µg/mL and the MIC ([6]; read-out: Average MIC at end point, MPAO1-ΔmutL passaged with No Antibiotic) was 11 µg/mL (≈ 25.3 µM). It also gave an MIC ([7]; read-out: Average MIC at end point, MPAO1 evolved in AZ) of 8 µg/mL (≈ 18.4 µM), an MIC ([7]; read-out: Average MIC at end point, MPAO1 evolved in AZ + COL) of 19 µg/mL and an MIC ([7]; read-out: Average MIC at end point, MPAO1 evolved in AZ + D-CONGA) of 11 µg/mL. For the same molecule, the MIC ([7]; read-out: Average MIC at end point, MPAO1 evolved in AZ + D-CONGA-Q7) was 4 µg/mL, the MIC ([7]; read-out: Average MIC at end point, MPAO1 evolved in Chl + Str) was 3 µg/mL and the MIC ([7]; read-out: Average MIC at end point, MPAO1 evolved in D-CONGA) was 7 µg/mL (≈ 16.1 µM). It also gave an MIC ([7]; read-out: Average MIC at end point, MPAO1 evolved in D-CONGA-Q7) of 7 µg/mL (≈ 16.1 µM), an MIC ([7]; read-out: Average MIC at end point, MPAO1 passaged with No Antibiotic (Table 4)) of 3 µg/mL (≈ 6.89 µM) and an MIC ([7]; read-out: Average MIC at end point, MPAO1 passaged with No Antibiotic (Table 8)) of 4 µg/mL (≈ 9.19 µM).
